# Source: patent US20230114728A1 (Venatorx Pharmaceuticals, Inc., priority 2019, published 2023)
# What was measured:
# E. coli ATCC 25922 = experiment: Broth microdilution MIC in CAMHB; assay type: cell-based; settings: Escherichia coli, ATCC25922; MHB; E. coli ATCC 25922; read-out: Minimum Inhibitory Concentration, E. coli 25922
# Procedure: (§1) Example III: In Vitro Antibacterial Assays
# (§2) To determine the ability of test compounds to inhibit the growth of bacterial strains, classic cell based broth microdilution minimum inhibitory concentration (MIC) assays were employed. MIC assays are performed according to CLSI methods except where otherwise noted (CLSI, 2018 and CLSI, 2019). The reference type strain E. coli ATCC 25922; the wild-type parent strain E. coli AG100; the hyper-permeable E. coli 901C and E. coli D22; and the E. coli AG100A strain lacking the acrAB efflux pump encoding genes were used to determine the ability of the PBP inhibitors to penetrate the outer membrane of gram-negative bacteria and inhibit bacterial growth. […] The P. aeruginosa ATCC 27853 and A. baumannii ATCC 19606, along with the hyper-permeable P. aeruginosa ATCC 35151 and an engineered efflux pump-compromised strain of P. aeruginosa (ΔmexAB-oprM) were used to determine the ability of PBP inhibitors to penetrate the outer membrane of P. aeruginosa and A. baumannii and assess antibacterial activity against these important gram-negative organisms.
# (§3) Briefly, cryo-preserved bacterial cultures of challenge strains are streaked for isolation on appropriate agar medium, in this case cation-adjusted Mueller Hinton agar. Following incubation to allow growth of the colonies, plates are sealed with parafilm and stored refrigerated for up to two weeks. For preparation of assay inoculum and to ensure low variability, at least 5 colonies are picked from the agar plates with an inoculating loop and aseptically transferred to a culture tube containing 3 mL of cation-adjusted Mueller Hinton broth (CAMHB). The broth culture is grown for 3-5 hours at 37° C. with shaking at 200 rpm. Meanwhile, 2-fold serial dilutions of test compounds are conducted in a 96-well plate with a final volume of 75 μL per well at 2-fold the final desired concentration. After the dilution plates are set up the growing cultures are then diluted in a cuvette containing CAMHB and the optical density is measured at 600 nm. The inoculum is diluted such that 75 μL of this culture in CAMHB results in a starting bacterial concentration of 2-8×10^5 CFU/mL when added to the dilution plates. The plates are incubated for 16-20 hours for Enterobacteriaceae and Pseudomonas and 20-24 hours for Acinetobacter at 37° C. The MIC values are read visually as the lowest concentration well with no bacterial growth.
# [1] = system: K. pneumoniae SI-117 producing VIM-1; experiment: Broth microdilution MIC in CAMHB; assay type: cell-based; settings: Klebsiella pneumoniae, read-out: Minimum Inhibitory Concentration, K. pneumoniae SI-117
# Procedure: as §1, §2, §3
# E. coli D22 = experiment: Broth microdilution MIC in CAMHB; assay type: cell-based; settings: Escherichia coli; MHB; hyper-permeable E. coli D22; read-out: Minimum Inhibitory Concentration, E. coli D22
# Procedure: as §1, §2, §3
# [2] = system: K. pneumoniae 848844 producing SHV-11 and KPC-2; experiment: Broth microdilution MIC in CAMHB; assay type: cell-based; settings: Klebsiella pneumoniae, read-out: Minimum Inhibitory Concentration, K. pneumoniae 848844
# Procedure: as §1, §2, §3
# A. baumannii ATCC 19606 = experiment: Broth microdilution MIC in CAMHB; assay type: cell-based; settings: Acinetobacter baumannii, ATCC19606; MHB; read-out: Minimum Inhibitory Concentration, A. baumannii ATCC 19606
# Procedure: as §1, §2, §3
# P. aeruginosa ATCC 35151 = experiment: Broth microdilution MIC in CAMHB; assay type: cell-based; settings: Pseudomonas aeruginosa, ATCC35151; MHB; hyper-permeable strain; read-out: Minimum Inhibitory Concentration, P. aeruginosa ATCC 35151
# Procedure: as §1, §2, §3
# E. coli AG100A = experiment: Broth microdilution MIC in CAMHB; assay type: cell-based; settings: Escherichia coli, read-out: Minimum Inhibitory Concentration, E. coli AG100A
# Procedure: as §1, §2, §3
# [3] = system: P. aeruginosa (ΔmexAB-oprM); experiment: Broth microdilution MIC in CAMHB; assay type: cell-based; settings: Pseudomonas aeruginosa, read-out: Minimum Inhibitory Concentration, P. aeruginosa ΔmexAB-OprM
# Procedure: as §1, §2, §3
# E. coli 901C = experiment: Broth microdilution MIC in CAMHB; assay type: cell-based; settings: Escherichia coli; MHB; hyper-permeable E. coli 901C; read-out: Minimum Inhibitory Concentration, E. coli 901C
# Procedure: as §1, §2, §3
# P. aeruginosa ATCC 27853 = experiment: Broth microdilution MIC in CAMHB; assay type: cell-based; settings: Pseudomonas aeruginosa, ATCC27853; MHB; read-out: Minimum Inhibitory Concentration, P. aeruginosa ATCC 27853
# Procedure: as §1, §2, §3
# [4] = system: K. pneumoniae UMM producing SHV-5 and KPC-2; experiment: Broth microdilution MIC in CAMHB; assay type: cell-based; settings: Klebsiella pneumoniae, read-out: Minimum Inhibitory Concentration, K. pneumoniae UMM
# Procedure: as §1, §2, §3
# E. coli AG100 = experiment: Broth microdilution MIC in CAMHB; assay type: cell-based; settings: Escherichia coli; MHB; wild-type parent strain E. coli AG100; read-out: Minimum Inhibitory Concentration, E. coli AG100
# Procedure: as §1, §2, §3
# E. coli K12 PBP3 = target: T1, E. coli K12 PBP3 (Escherichia coli, UniProt P0AD68); experiment: biochemical; assay type: binding
# T1 construct: made in house
# T1 sequence (P0AD68 1-577): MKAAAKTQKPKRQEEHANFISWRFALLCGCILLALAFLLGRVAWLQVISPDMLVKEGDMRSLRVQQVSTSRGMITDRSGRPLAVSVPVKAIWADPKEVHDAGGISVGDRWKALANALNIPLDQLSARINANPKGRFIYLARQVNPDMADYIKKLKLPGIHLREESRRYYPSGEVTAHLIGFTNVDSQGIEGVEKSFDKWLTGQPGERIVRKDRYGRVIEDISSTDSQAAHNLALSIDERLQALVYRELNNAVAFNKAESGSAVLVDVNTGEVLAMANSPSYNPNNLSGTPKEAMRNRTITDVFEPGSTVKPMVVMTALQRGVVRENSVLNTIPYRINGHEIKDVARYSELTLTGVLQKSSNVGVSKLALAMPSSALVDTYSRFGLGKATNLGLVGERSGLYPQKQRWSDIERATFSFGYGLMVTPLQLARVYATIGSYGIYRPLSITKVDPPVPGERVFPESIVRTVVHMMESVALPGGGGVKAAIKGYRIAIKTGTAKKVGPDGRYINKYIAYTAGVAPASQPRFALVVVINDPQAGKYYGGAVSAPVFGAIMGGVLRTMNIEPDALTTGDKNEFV
# Excerpt: Example I: Experimental Method for Penicillin-Binding Protein Binding Assays with Bocillin-FL Via Fluorescence Polarization
# To determine the ability of boronic acid-based test PBP inhibitors to bind Penicillin Binding Proteins (PBPs), Bocillin-FL (fluorescently-labeled penicillin V; ThermoFisher Scientific) was used in a fluorescence polarization (FP) competition binding assay to assess inhibitor binding to PBP2, PBP3 or PBP4 from Escherichia coli (K12), PBP3 from Pseudomonas aeruginosa (PA01), PBP1a, PBP2 and PBP3 from Acinetobacter baumannii (ATCC 19606), and PBP2 from Neiserria gonorrheae (FA19). PBPs were cloned and purified as described previously (E. coli PBPs, King, D. T, et al., ACS Infectious Diseases 2015, 1, 175-184; P. aeruginosa PBP3, Han et. al., PNAS 2010, 107 (51), 22002-22007; A. baumannii PBPs, Penwell et. al., Antimicrob. Agents Chemother. 2015, 59 (3), 1680-1689; N. gonorrhoeae PBP2, Singh et. al., J Biol. Chem. 2019, 294 (38), 14020-14032). To establish assay conditions for competition binding, enzyme titration/saturation binding experiments were initially performed. Bocillin-FL was prepared at 0.2 μM in a buffer comprised of 50 mM Hepes (pH 8.0), 300 mM NaCl and 5% (v/v) glycerol for reactions with E. coli, P. aeruginosa and N. gonorrhoeae PBPs, and 25 mM Tris (pH 8.0), 200 mM NaCl and 10% (v/v) glycerol and 0.005% (v/v) Tween 20 for reactions with A. baumannii PBPs. Saturation binding was performed by mixing 40 μl of PBP solutions ranging in concentrations from 0-24 μM with 40 μl of the 0.2 μM Bocillin-FL solution, in individual wells of a black 384-well microplate. FP was measured immediately upon mixing (Excitation, 490 nm; Emission, 520 nm; g-factor, 0.96), using a Cytation3 (BioTek) microplate reader and measured continuously for up to 120 minutes. […] The competition binding assay (80 μl final volume) was validated using beta-lactams and PBPs at final concentrations of: 1.5 μM, E. coli PBP3; 0.75 μM, P. aeruginosa PBP3; 1 μM A. baumannii PBP1a; 2.5 μM A. baumannii PBP2; 0.2 μM A. baumannii PBP3; and […] N. gonorrhoeae PBP2. Bocillin-FL was at 0.1 μM (0.05 μM with A. baumannii PBP1a) and beta-lactam concentrations ranged from 0-1000 μM. […] Bocillin-FL was added and the FP immediately measured for up to 60 minutes (90 minutes for E. coli PBP2). […] The beta-lactam potency was reported as the concentration of beta-lactam required to reduce the amount of PBP bound-Bocillin-FL by 50% (EC50). […] Binding assays for boronic acid PBP inhibitors were performed in an identical fashion for the respective PBPs
SMILES,MIC (E. coli ATCC 25922) [µg/mL],MIC [1] [µg/mL],MIC (E. coli D22) [µg/mL],MIC [2] [µg/mL],MIC (A. baumannii ATCC 19606) [µg/mL],MIC (P. aeruginosa ATCC 35151) [µg/mL],MIC (E. coli AG100A) [µg/mL],MIC [3] [µg/mL],MIC (E. coli 901C) [µg/mL],MIC (P. aeruginosa ATCC 27853) [µg/mL],MIC [4] [µg/mL],MIC (E. coli AG100) [µg/mL],EC50 (E. coli K12 PBP3) [µM]
"NCCN1CCCN(C(=O)N[C@H](C(=O)N[C@H]2Cc3cccc(C(=O)O)c3OB2O)c2c(F)cc(O)cc2F)C1=O (single isomer, unassigned) [Example 231]",> 128,> 128,> 128,> 128,> 128,8 to 16,> 128,> 128,> 128,> 128,32 to 64,> 128,30 to 500
"NC1(CN2CCN(C(=O)N[C@@H](C(=O)N[C@H]3Cc4cccc(C(=O)O)c4OB3O)c3ccc(O)c(F)c3F)C(=O)C2=O)CC1 (single isomer, unassigned) [Example 236]",32 to 64,2 to 4,32 to 64,32 to 64,> 128,< 0.25,32 to 64,2 to 4,32 to 64,> 128,0.5 to 1,32 to 64,< 30
"NC1(CN2CCN(C(=O)N[C@H](C(=O)N[C@H]3Cc4cccc(C(=O)O)c4OB3O)c3ccc(O)c(F)c3F)C(=O)C2=O)CC1 (single isomer, unassigned) [Example 237]",> 128,32 to 64,> 128,> 128,> 128,0.5 to 1,> 128,8 to 16,> 128,> 128,2 to 4,> 128,30 to 500
"O=C(O)c1cccc2c1OB(O)[C@@H](NC(=O)C(NC(=O)N1CCN(CCF)C(=O)C1=O)c1ccc(O)c(F)c1F)C2 (stereo partly drawn) [Example 235, (3R)-3-(2-(2,3-difluoro-4-hydroxyphenyl)-2-(4-(2-fluoroethyl)-2,3-dioxopiperazine-1-carboxamido)acetamido)-2-hydroxy-3,4-dihydro-2H-benzo[e][1,2]oxaborinine-8-carboxylic acid]",8 to 16,2 to 4,32 to 64,32 to 64,> 128,0.5 to 1,32 to 64,8 to 16,32 to 64,> 128,< 0.25,32 to 64,< 30
C[C@H]1CN(CCF)C(=O)C(=O)N1C(=O)NC(C(=O)N[C@H]1Cc2cccc(C(=O)O)c2OB1O)c1cc(F)c(O)c(F)c1F (stereo partly shown) [Example 248],8 to 16,0.5 to 1,8 to 16,32 to 64,> 128,2 to 4,32 to 64,8 to 16,> 128,> 128,< 0.25,32 to 64,
"O=C(O)c1cccc2c1OB(O)[C@@H](NC(=O)C(NC(=O)N1CCN(CCBr)C(=O)C1=O)c1ccc(O)c(F)c1F)C2 (stereo partly drawn) [Example 249, (3R)-3-(2-(4-(2-bromoethyl)-2,3-dioxopiperazine-1-carboxamido)-2-(2,3-difluoro-4-hydroxyphenyl)acetamido)-2-hydroxy-3,4-dihydro-2H-benzo[e][1,2]oxaborinine-8-carboxylic acid]",32 to 64,2 to 4,32 to 64,32 to 64,> 128,0.5 to 1,32 to 64,8 to 16,> 128,> 128,< 0.25,> 128,
"CCN1CCN(C(=O)NC(C(=O)N[C@H]2Cc3cccc(C(=O)O)c3OB2O)c2ccc(P(=O)(O)O)cc2)C(=O)C1=O (stereo partly drawn) [Example 250, (3R)-3-(2-(4-ethyl-2,3-dioxopiperazine-1-carboxamido)-2-(4-phosphonophenyl)acetamido)-2-hydroxy-3,4-dihydro-2H-benzo[e][1,2]oxaborinine-8-carboxylic acid]",32 to 64,2 to 4,32 to 64,> 128,32 to 64,2 to 4,> 128,8 to 16,> 128,> 128,< 0.25,> 128,
"Nc1nc(C(=O)NC(C(=O)N[C@H]2Cc3cccc(C(=O)O)c3OB2O)c2c(F)cc(O)cc2F)cs1 (stereo partly drawn) [Example 251, (3R)-3-(2-(2-aminothiazole-4-carboxamido)-2-(2,6-difluoro-4-hydroxyphenyl)acetamido)-2-hydroxy-3,4-dihydro-2H-benzo[e][1,2]oxaborinine-8-carboxylic acid]",> 128,8 to 16,> 128,> 128,> 128,2 to 4,> 128,32 to 64,> 128,> 128,2 to 4,> 128,
